Laboratory results taken from patent US9937151B2, “Carbapenem antibacterials with gram-negative activity” (priority 2010, dated 2018).
Values after ≈ are worked out from the molar mass of the structure shown.

System: G(−) bacterial strains
Test: Dilution antimicrobial susceptibility tests (MIC, NCCLS agar dilution / broth dilution)
Assay type: cell-based, Gram-negative organisms
Details: unit assumed
Method in brief: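 Agar dilution on Mueller-Hinton agar at 10^4 CFU/spot and broth dilution at 5×10^5 CFU/well, per NCCLS M7-A5. Streptococci tested on Mueller-Hinton agar with 5% sheep blood. MIC taken as minimum inhibitory concentration; ATCC control strains run alongside.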

[1] = strain #1 Acinetobacter calcoaceticus
[2] = strain #2 Acinetobacter baumannii, Cf-R, Ci-R
[3] = strain #3 Acinetobacter baumannii, Cf-R, Ci-R, Mp-I
[4] = strain #4 Acinetobacter baumannii, Cf-R, Imp-I, CBPase
[5] = strain #7 Enterobacter aerogenes
[6] = strain #8 Enterobacter cloacae, Cf-R, B+
[7] = strain #9 Enterobacter cloacae, Cf-R
[8] = strain #10 Escherichia coli, Ci-R
[9] = strain #11 Escherichia coli, Ci-R, AmpC
[10] = strain #15 Klebsiella pneumoniae
[11] = strain #16 Moraxella catarrhalis
[12] = strain #21 Providencia rettgeri
[13] = strain #22 Salmonella typhimurium
[14] = strain #25 Shigella dysenteriae
[15] = strain #28 Stenotrophomonas maltophilia
[16] = strain #29 Pseudomonas aeruginosa
[17] = strain #30 Pseudomonas aeruginosa
[18] = strain #31 Pseudomonas aeruginosa, Ofx-R
[19] = strain #32 Pseudomonas aeruginosa, Cf-R
[20] = strain #33 Pseudomonas aeruginosa, Ci-R
[21] = strain #34 Pseudomonas aeruginosa, Gen-R
[22] = strain #35 Pseudomonas aeruginosa, Ip-R
[23] = strain #36 Pseudomonas aeruginosa, Cf-R, Ci-R, Mp-R

Row | Structure (SMILES) | MIC [1] [µg/mL] | MIC [2] [µg/mL] | MIC [3] [µg/mL] | MIC [4] [µg/mL] | MIC (strain #5 Citrobacter diversus) [µg/mL] | MIC (strain #6 Citrobacter freundii) [µg/mL] | MIC [5] [µg/mL] | MIC [6] [µg/mL] | MIC [7] [µg/mL] | MIC [8] [µg/mL] | MIC [9] [µg/mL] | MIC (strain #12 Escherichia coli) [µg/mL] | MIC (strain #13 Escherichia coli) [µg/mL] | MIC (strain #14 Klebsiella oxytoca) [µg/mL] | MIC [10] [µg/mL] | MIC [11] [µg/mL] | MIC (strain #17 Morganella Morganii) [µg/mL] | MIC (strain #18 Morganella Morganii) [µg/mL] | MIC (strain #19 Proteus vulgaris) [µg/mL] | MIC (strain #20 Proteus mirabilis) [µg/mL] | other results
1 | C[C@@H](O)C1C(=O)N2C(C(=O)O)=C(CN3CC[C@H](CNC(=N)N)C3)[C@H](C)C12 (stereo partly drawn) [Compound 99] | 0.25 (≈ 0.684 µM) | 1 (≈ 2.74 µM) | 2 (≈ 5.47 µM) | 2 (≈ 5.47 µM) | 0.5 (≈ 1.37 µM) | 1 (≈ 2.74 µM) | 2 (≈ 5.47 µM) | 0.5 (≈ 1.37 µM) | 1 (≈ 2.74 µM) | 0.5 (≈ 1.37 µM) | 0.5 (≈ 1.37 µM) | 0.5 (≈ 1.37 µM) | 1 (≈ 2.74 µM) | 2 (≈ 5.47 µM) | 1 (≈ 2.74 µM) | ≤ 0.008 | 4 (≈ 10.9 µM) | 4 (≈ 10.9 µM) | 2 (≈ 5.47 µM) | 1 (≈ 2.74 µM) | MIC [12]: 4 µg/mL (≈ 10.9 µM); MIC [13]: 1 µg/mL (≈ 2.74 µM); MIC (strain #23 Serratia marcescens): 2 µg/mL (≈ 5.47 µM); MIC (strain #24 Serratia marcescens): 4 µg/mL (≈ 10.9 µM); MIC [14]: 1 µg/mL (≈ 2.74 µM); MIC (strain #26 Shigella sonnei): 1 µg/mL (≈ 2.74 µM); MIC (strain #27 Shigella flexneri): 1 µg/mL (≈ 2.74 µM); MIC [15]: 0.25 µg/mL (≈ 0.684 µM); MIC [16]: 2 µg/mL (≈ 5.47 µM); MIC [17]: 2 µg/mL (≈ 5.47 µM); MIC [18]: 1 µg/mL (≈ 2.74 µM); MIC [19]: 4 µg/mL (≈ 10.9 µM); MIC [20]: 4 µg/mL (≈ 10.9 µM); MIC [21]: 4 µg/mL (≈ 10.9 µM); MIC [22]: 4 µg/mL (≈ 10.9 µM); MIC [23]: > 32 µg/mL
2 | C[C@@H](O)C1C(=O)N2C(C(=O)O)=C(CN3CC(C(N)=O)C3)[C@H](C)C12 (stereo partly drawn) [Compound 49] | 0.25 (≈ 0.773 µM) | 0.5 (≈ 1.55 µM) | 2 (≈ 6.19 µM) | 1 (≈ 3.09 µM) | 0.063 (≈ 0.195 µM) | 0.13 (≈ 0.402 µM) | 0.25 (≈ 0.773 µM) | 0.063 (≈ 0.195 µM) | 0.13 (≈ 0.402 µM) | 0.063 (≈ 0.195 µM) | 0.063 (≈ 0.195 µM) | 0.063 (≈ 0.195 µM) | 0.13 (≈ 0.402 µM) | 0.25 (≈ 0.773 µM) | 0.25 (≈ 0.773 µM) | ≤ 0.008 | 2 (≈ 6.19 µM) | 1 (≈ 3.09 µM) | 0.5 (≈ 1.55 µM) | 0.13 (≈ 0.402 µM) | MIC [12]: 0.5 µg/mL (≈ 1.55 µM); MIC [13]: 0.13 µg/mL (≈ 0.402 µM); MIC (strain #23 Serratia marcescens): 0.25 µg/mL (≈ 0.773 µM); MIC (strain #24 Serratia marcescens): 0.25 µg/mL (≈ 0.773 µM); MIC [14]: 0.13 µg/mL (≈ 0.402 µM); MIC (strain #26 Shigella sonnei): 0.13 µg/mL (≈ 0.402 µM); MIC (strain #27 Shigella flexneri): 0.063 µg/mL (≈ 0.195 µM); MIC [15]: 0.13 µg/mL (≈ 0.402 µM); MIC [16]: 4 µg/mL (≈ 12.4 µM); MIC [17]: 4 µg/mL (≈ 12.4 µM); MIC [18]: 2 µg/mL (≈ 6.19 µM); MIC [19]: 4 µg/mL (≈ 12.4 µM); MIC [20]: 4 µg/mL (≈ 12.4 µM); MIC [21]: 4 µg/mL (≈ 12.4 µM); MIC [22]: 8 µg/mL (≈ 24.7 µM); MIC [23]: 32 µg/mL (≈ 99 µM)
